According to ChEMBL document CHEMBL6127121, “Development of N-(4-(1H-Imidazol-1-yl)phenyl)-4-chlorobenzenesulfonamide, a Novel Potent Inhibitor of β-Catenin with Enhanced Antitumor Activity and Metabolic Stability” (J Med Chem, 2024):
Activity calls are given as the source filed them. The calls are words filed in the database; no cut-off is given here.

Tests used:
[1] = tested on: SW480; assay: Inhibition of Wnt/beta-catenin signaling in human SW480 cells assessed as residual activity at IC50 concentration incubated for 12 hrs by Topflash/Fopflash Dual-Glo luciferase reporter assay; format: cell-based; settings: dose 30.0 µM
[2] = tested on: HCT-116; assay: Inhibition of Wnt/beta-catenin signaling in human HCT-116 cells assessed as residual activity at IC50 concentration incubated for 12 hrs by Topflash/Fopflash Dual-Glo luciferase reporter assay; format: cell-based; settings: dose 30.0 µM
[3] = tested on: SW480; assay: Inhibition of cell growth in human SW480 cells incubated for 48 to 72 hrs by XTT method; format: functional, cell-based
[4] = tested on: HCT-116; assay: Inhibition of cell growth in human HCT-116 cells incubated for 48 to 72 hrs by XTT method; format: functional, cell-based
[5] = molecular target: T1, Catenin beta-1 (Homo sapiens) (UniProt P35222); assay: Inhibition of beta-catenin in human HCT-116 cells transfected with luciferase based vectors at 1 to 10 nM incubated for 48 hrs in presence of LiCl; format: cell-based; settings: dose 1-10 nM
T1 sequence (whole entry): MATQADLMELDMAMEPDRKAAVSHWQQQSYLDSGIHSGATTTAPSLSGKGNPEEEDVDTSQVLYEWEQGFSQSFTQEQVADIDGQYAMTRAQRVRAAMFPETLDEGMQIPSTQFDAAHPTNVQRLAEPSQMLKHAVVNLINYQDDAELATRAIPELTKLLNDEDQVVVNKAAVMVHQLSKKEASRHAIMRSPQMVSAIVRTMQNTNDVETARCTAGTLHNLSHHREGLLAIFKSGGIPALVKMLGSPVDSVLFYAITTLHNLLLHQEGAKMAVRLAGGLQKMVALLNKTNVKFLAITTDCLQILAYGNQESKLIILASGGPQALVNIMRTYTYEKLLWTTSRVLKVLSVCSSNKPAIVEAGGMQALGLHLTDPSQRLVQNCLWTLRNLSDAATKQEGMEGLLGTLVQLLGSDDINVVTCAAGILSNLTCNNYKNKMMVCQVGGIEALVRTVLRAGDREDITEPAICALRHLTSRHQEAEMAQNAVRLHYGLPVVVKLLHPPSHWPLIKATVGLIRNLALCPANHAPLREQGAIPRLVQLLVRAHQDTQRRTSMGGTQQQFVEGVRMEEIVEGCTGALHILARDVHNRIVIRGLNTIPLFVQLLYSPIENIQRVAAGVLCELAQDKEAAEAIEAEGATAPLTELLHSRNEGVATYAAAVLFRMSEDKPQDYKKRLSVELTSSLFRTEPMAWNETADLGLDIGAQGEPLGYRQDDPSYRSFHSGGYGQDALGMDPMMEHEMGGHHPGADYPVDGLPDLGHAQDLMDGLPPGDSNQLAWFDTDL

[6] = molecular target: T1, Catenin beta-1 (Homo sapiens); assay: Inhibition of beta-catenin in human HCT-116 cells transfected with luciferase based vectors incubated for 24 hrs in presence of LiCl; format: cell-based; settings: dose 50-100 nM
[7] = tested on: HCT-116; assay: Downregulation of beta-catenin protein level in human HCT-116 cells incubated for 24 hrs in presence of 50 mM LiCl by Western blotting analysis; format: functional, cell-based; settings: dose 10-100 µM
[8] = tested on: HCT-116; assay: Downregulation of c-Myc protein level in human HCT-116 cells incubated for 24 hrs in presence of 50 mM LiCl by Western blotting analysis; format: functional, cell-based; settings: dose 10-100 µM
[9] = tested on: HCT-116; assay: Downregulation of c-Myc mRNA level in human HCT-116 cells incubated for 24 hrs in presence of 50 mM LiCl by qPCR analysis; format: functional, cell-based; settings: dose 10-100 µM
[10] = Downregulation of c-Myc mRNA level in human HCT-116 cells at 10 uM incubated for 24 hrs in presence of 50 mM LiCl by qPCR analysis; format: functional
[11] = tested on: HCT-116; assay: Downregulation of Fgf20 mRNA level in human HCT-116 cells at 10 uM incubated for 24 hrs by qPCR analysis; format: functional, cell-based
[12] = tested on: HCT-116; assay: Downregulation of Sall4 mRNA level in human HCT-116 cells at 10 uM incubated for 24 hrs by qPCR analysis; format: functional, cell-based
[13] = tested on: HCT-116; assay: Antitumor activity against human HCT-116 cells xenografted in BALB/c nu/nu mouse assessed as reduction in tumor volume at 25 mg/kg, ip administered every 2 days for 30 day; format: functional, organism-based
[14] = tested on: HCT-116; assay: Antitumor activity against human HCT-116 cells xenografted in BALB/c nu/nu mouse assessed as reduction in tumor weight at 25 mg/kg, ip administered every 2 days for 30 day; format: functional, organism-based
[15] = tested on: HCT-116; assay: Antitumor activity against human HCT-116 cells xenografted in BALB/c nu/nu mouse assessed as reduction in nuclear Ki67 expression at 25 mg/kg, ip administered every 2 days for 30 day by […] based assay; format: functional, organism-based
[16] = Metabolic stability in human liver microsomes assessed as intrinsic clearance per mg protein preincubated for 10 mins followed by NADP, glucose-6-phosphate and glucose-6-phosphate dehydrogenase addition and measured upto 60 mins by LC-MS/MS analysis; format: ADME, Microsome; settings: time < 70 min, read-out: CLH
[17] = Metabolic stability in human liver microsomes assessed as half life preincubated for 10 mins followed by NADP, glucose-6-phosphate and glucose-6-phosphate dehydrogenase addition and measured upto 60 mins by LC-MS/MS analysis; format: ADME, Microsome; settings: time < 70 min
[18] = Metabolic stability in mouse liver microsomes assessed as intrinsic clearance per mg protein preincubated for 10 mins followed by NADP, glucose-6-phosphate and glucose-6-phosphate dehydrogenase addition and measured upto 60 mins by LC-MS/MS analysis; format: ADME, Microsome; settings: time < 70 min, read-out: CLH
[19] = Metabolic stability in mouse liver microsomes assessed as half life preincubated for 10 mins followed by NADP, glucose-6-phosphate and glucose-6-phosphate dehydrogenase addition and measured upto 60 mins by LC-MS/MS analysis; format: ADME, Microsome; settings: time < 70 min

## O=S(=O)(Nc1ccc(-c2ccoc2)cc1)c1ccc(C(F)(F)F)cc1
[1]
  Activity: 4.4%
[2]
  Activity: 9.7%
[3]
  EC50: > 50 µM
[4]
  EC50: > 55 µM

## O=S(=O)(Nc1ccc(-n2ccnc2)cc1)c1ccc(Cl)cc1
[1]
  Activity: 3.7%
[2]
  Activity: 2.5%
[3]
  EC50: 2 µM
[4]
  EC50: 0.12 µM
[5]
  inhibition: Active
[6]
  inhibition: Dose-Dependent Effect
[7]
  Activity: Dose-Dependent Effect
[8]
  Activity: Dose-Dependent Effect
[9]
  Activity: Dose-Dependent Effect
[10]
  Activity: 50%
[11]
  Activity: Active
[12]
  Activity: Active
[13]
  Activity: Active
[14]
  Activity: Active
[15]
  Activity: Active
[16]
  microsomal CLint: < 3 µL/min/mg
[17]
  half-life: > 8.33 h
[18]
  microsomal CLint: < 3 µL/min/mg
[19]
  half-life: > 8.33 h

## O=c1[nH]cc(F)c(=O)[nH]1 [FLUOROURACIL]
[3]
  EC50: 13.7 µM
[4]
  EC50: 23.1 µM

## O=S(=O)(Nc1ccc(-c2ccoc2)cc1)c1ccc(Br)cc1
[1]
  Activity: 28.4%
[2]
  Activity: 32.1%
[3]
  EC50: 35 µM
[4]
  EC50: 62 µM

## CC(C)NCC(O)COc1cccc2ccccc12 (stereo not drawn) [PROPRANOLOL]
[17]
  half-life: 0.587 h

## O=S(=O)(Nc1ccc(-c2ccsc2)cc1)c1ccc(C(F)(F)F)cc1
[1]
  Activity: 5.6%
[2]
  Activity: 2.4%
[3]
  EC50: 17 µM
[4]
  EC50: 12 µM

## O=S(=O)(Nc1ccc(-c2ccccc2)cc1)c1ccc(Br)cc1
[1]
  Activity: 8.1%
[2]
  Activity: 3.2%
[3]
  EC50: 31 µM
[4]
  EC50: 27 µM

## O=S(=O)(Nc1cccc(-n2ccnc2)c1)c1ccc(Br)cc1
[1]
  Activity: 3.6%
[2]
  Activity: 3.1%
[3]
  EC50: > 50 µM
[4]
  EC50: > 50 µM

## O=S(=O)(Nc1cccc(-c2ccoc2)c1)c1ccc(Br)cc1
[1]
  Activity: 1.6%
[2]
  Activity: 5.7%
[3]
  EC50: 38 µM
[4]
  EC50: 35 µM

## O=S(=O)(Nc1cccc(-n2ccnc2)c1)c1ccc(C(F)(F)F)cc1
[1]
  Activity: 9.1%
[2]
  Activity: 5.1%
[3]
  EC50: 28 µM
[4]
  EC50: 50 µM

## O=S(=O)(Nc1cccc(-c2ccccn2)c1)c1ccc(-n2cccc2)cc1
[1]
  Activity: 6.3%
[2]
  Activity: 6.4%
[3]
  EC50: 46 µM
[4]
  EC50: 66 µM

## COC(=O)c1ccc(NS(=O)(=O)c2ccc(Br)cc2)cc1
[1]
  Activity: 19.4%
[2]
  Activity: 2.5%

## O=S(=O)(Nc1ccc(-n2ccnc2)cc1)c1ccc(C(F)(F)F)cc1
[1]
  Activity: 6%
[2]
  Activity: 4.4%
[3]
  EC50: 14 µM
[4]
  EC50: 16 µM

## O=S(=O)(Nc1cccc(-c2ccccn2)c1)c1ccc(C(F)(F)F)cc1
[1]
  Activity: 3.4%
[2]
  Activity: 6.6%
[3]
  EC50: > 50 µM
[4]
  EC50: > 50 µM

## O=S(=O)(Nc1ccc(-c2ccccn2)cc1)c1ccc(Br)cc1
[1]
  Activity: 8.8%
[2]
  Activity: 4.3%
[3]
  EC50: 34 µM
[4]
  EC50: 24 µM
